According to US8338468B2, “Microbicidal composition” (ISP Investments Inc., priority 2005, dated 2012):
Where “and” joins values, the source holds several entries; their conditions need not be identical. Equal entries are not always repeated. Where two headings read alike, the source gives them in different places.

Tests used:
Assay in all cases: Synergy test (MIC) in Ringer's Solution
Type in all cases: cell-based
Proteus Mirabilis = settings: 30° C., about 10^5 microbes per ml; for MIC: Proteus mirabilis
Protocol: (§1) Synergy tests were conducted using microbiological standard methods. Ringer's Solution (Merck, VWR) was used for testing bacteria, yeast and mould species. In jars 100 ml aliquots of sterile Ringer Solution are dosed with the preservatives and a known inoculum of the single test species is added. A control sample containing no preservative is also used to ascertain the biocide effect on the inoculum. The prepared jars were incubated at 30° C. Aliquots are streaked out at regular intervals on specific nutrient agar so that an estimate of kill time can be determined at the same time as effective concentration. TSA (tryptic soy agar) was used for bacteria; MEA (malt extract agar) was used for yeast and moulds. The plates were visually evaluated for microbial growth to determine the MIC after various incubation times at 30° C. The synergy of the combinations of the present invention was determined against four bacteria, Pseudomonas aeruginosa, Escherichia coli, Proteus Mirabilis, and Staphylococcus aureus, a yeast, Candida albicans and two moulds Trichoderma viride and Aspergillus niger. The single micro-organisms were used at a concentration of about 10^5 microbes per ml. these micro-organisms are standard reference organisms and representative of natural contaminants in many consumer and industrial applications. […] In each test first component (A) was MIT and the second component was phenylethylalcohol (B).

Trichoderma viride = settings: 30° C., about 10^5 microbes per ml; for MIC: Trichoderma viride
Protocol: as §1

Pseudomonas aeruginosa = settings: 30° C., about 10^5 microbes per ml; for MIC: Pseudomonas aeruginosa
Protocol: as §1

Aspergillus niger = settings: 30° C., about 10^5 microbes per ml; for MIC: Aspergillus niger
Protocol: as §1

Escherichia coli = settings: 30° C., about 10^5 microbes per ml; for MIC: Escherichia coli
Protocol: as §1

Staphylococcus aureus = settings: 30° C., about 10^5 microbes per ml; for MIC: Staphylococcus aureus
Protocol: as §1

Candida albicans = settings: 30° C., about 10^5 microbes per ml; for MIC: Candida albicans
Protocol: as §1

[1] = MIT alone, Test 1 single, Test 2.1-2.3 parallel samples
[2] = MIT alone, Test 1 single, Test 2.1-2.3 parallel samples, read-out: QA, ppm MIT acting alone, which produced an end point (MIC)
[3] = phenylethylalcohol alone, read-out: QB, ppm phenylethylalcohol acting alone, which produced an end point (MIC)

**Q.** What does the source list for `Cn1sccc1=O` [MIT, 2-methyl-3-isothiazolone]?
**A.** QA, ppm MIT acting alone, which produced an end point (MIC) (Proteus Mirabilis; [1]): 25 ppm; MIC (Proteus Mirabilis; [2]): 50 µg/mL; QA, ppm MIT acting alone, which produced an end point (MIC) (Trichoderma viride; [1]): 50 ppm; MIC (Trichoderma viride; [2]): 75 µg/mL; QA, ppm MIT acting alone, which produced an end point (MIC) (Pseudomonas aeruginosa; [1]): 25 ppm; MIC (Pseudomonas aeruginosa; [2]): 50 µg/mL; MIC (Aspergillus niger; [2]): 50 µg/mL; MIC (Escherichia coli; [2]): 25 µg/mL; QA, ppm MIT acting alone, which produced an end point (MIC) (Escherichia coli; [1]): 50 ppm; QA, ppm MIT acting alone, which produced an end point (MIC) (Staphylococcus aureus; [1]): 50 ppm; MIC (Staphylococcus aureus; [2]): 75 µg/mL; MIC (Candida albicans; [2]): 50 µg/mL

**Q.** For `OCCc1ccccc1` [phenylethylalcohol], which MIC (Proteus Mirabilis; [3]) is on record?
**A.** The MIC was 2000 µg/mL.

**Q.** And the MIC (Trichoderma viride; [3])?
**A.** The MIC was 2000 µg/mL.

**Q.** What about the “QB, ppm phenylethylalcohol acting alone, which produced an end point (MIC)” value (from here on “QB, ppm phenylethylalcohol acting alone”) (Trichoderma viride; phenylethylalcohol alone) of the same compound?
**A.** The value was 3000 ppm.

**Q.** What about the MIC (Pseudomonas aeruginosa; [3]) of the same compound?
**A.** The MIC was 2000 µg/mL.

**Q.** What about the “QB, ppm phenylethylalcohol acting alone” value (Pseudomonas aeruginosa; phenylethylalcohol alone) of the same compound?
**A.** Its value is 2500 ppm.

**Q.** And the MIC (Aspergillus niger; [3])?
**A.** The MIC was 1500 µg/mL.

**Q.** And the “QB, ppm phenylethylalcohol acting alone” value (Aspergillus niger; phenylethylalcohol alone)?
**A.** Its value is 2000 ppm.

**Q.** What about the MIC (Escherichia coli; [3]) of the same compound?
**A.** Its MIC is 2500 µg/mL.

**Q.** What about the “QB, ppm phenylethylalcohol acting alone” value (Escherichia coli; phenylethylalcohol alone) of the same compound?
**A.** The value was 2000 ppm.

**Q.** What about the MIC (Staphylococcus aureus; [3]) of the same compound?
**A.** Its MIC is 2000 µg/mL.

**Q.** What about the “QB, ppm phenylethylalcohol acting alone” value (Staphylococcus aureus; phenylethylalcohol alone) of the same compound?
**A.** The value was 1500 ppm.

**Q.** What about the MIC (Candida albicans; [3]) of the same compound?
**A.** The MIC was 2000 µg/mL.

**Q.** And the “QB, ppm phenylethylalcohol acting alone” value (Candida albicans; phenylethylalcohol alone)?
**A.** Its value is 2500 ppm and 1500 ppm.
